Reference: patent publication US11572590B2, “Methods for evaluating tumor cell spheroids using 3D microfluidic cell culture device” (Dana-Farber Cancer Institute, Inc., priority 2017, dated 2023)
Like-named read-outs stand apart in the source and are kept apart here.

Columns and labels:
Test in all cases: SelectScreen Kinase Profiling, single point inhibition and IC50 for off-target kinases
Format in all cases: biochemical
[1] = target: off-target kinases (Homo sapiens, UniProt P00519, M351T); settings: ABL1 M351T, LanthaScreen Binding
[2] = target: T1, off-target kinases (Homo sapiens, UniProt O15530); settings: ZLYTE
T1 sequence (O15530 1-556): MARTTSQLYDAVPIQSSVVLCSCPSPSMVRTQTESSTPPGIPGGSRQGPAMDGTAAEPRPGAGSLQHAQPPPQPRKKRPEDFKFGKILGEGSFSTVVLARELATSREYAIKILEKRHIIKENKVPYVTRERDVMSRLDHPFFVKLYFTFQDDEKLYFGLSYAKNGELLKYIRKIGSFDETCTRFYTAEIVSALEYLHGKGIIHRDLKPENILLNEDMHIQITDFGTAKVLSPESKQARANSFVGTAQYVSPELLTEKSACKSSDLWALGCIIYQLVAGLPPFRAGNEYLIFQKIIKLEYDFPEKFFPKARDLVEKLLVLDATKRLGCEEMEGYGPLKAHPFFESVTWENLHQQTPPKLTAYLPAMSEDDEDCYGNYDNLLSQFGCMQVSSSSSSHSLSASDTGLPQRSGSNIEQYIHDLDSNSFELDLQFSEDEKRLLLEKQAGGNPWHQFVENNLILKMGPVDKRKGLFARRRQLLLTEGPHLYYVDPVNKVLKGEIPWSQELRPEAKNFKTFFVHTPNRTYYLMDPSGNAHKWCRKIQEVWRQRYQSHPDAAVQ

[3] = target: off-target kinases (Homo sapiens, UniProt Q14012); settings: CAMK1 (CaMK1), Adapta, ATP 10
[4] = target: off-target kinases (Homo sapiens, UniProt P51812); settings: RPS6KA3 (RSK2), ZLYTE, ATP Km app
[5] = target: T2, off-target kinases (Homo sapiens, UniProt Q9BZL6); settings: PRKD2 (PKD2), ATP Km app, ZLYTE
T2 sequence (Q9BZL6 1-878): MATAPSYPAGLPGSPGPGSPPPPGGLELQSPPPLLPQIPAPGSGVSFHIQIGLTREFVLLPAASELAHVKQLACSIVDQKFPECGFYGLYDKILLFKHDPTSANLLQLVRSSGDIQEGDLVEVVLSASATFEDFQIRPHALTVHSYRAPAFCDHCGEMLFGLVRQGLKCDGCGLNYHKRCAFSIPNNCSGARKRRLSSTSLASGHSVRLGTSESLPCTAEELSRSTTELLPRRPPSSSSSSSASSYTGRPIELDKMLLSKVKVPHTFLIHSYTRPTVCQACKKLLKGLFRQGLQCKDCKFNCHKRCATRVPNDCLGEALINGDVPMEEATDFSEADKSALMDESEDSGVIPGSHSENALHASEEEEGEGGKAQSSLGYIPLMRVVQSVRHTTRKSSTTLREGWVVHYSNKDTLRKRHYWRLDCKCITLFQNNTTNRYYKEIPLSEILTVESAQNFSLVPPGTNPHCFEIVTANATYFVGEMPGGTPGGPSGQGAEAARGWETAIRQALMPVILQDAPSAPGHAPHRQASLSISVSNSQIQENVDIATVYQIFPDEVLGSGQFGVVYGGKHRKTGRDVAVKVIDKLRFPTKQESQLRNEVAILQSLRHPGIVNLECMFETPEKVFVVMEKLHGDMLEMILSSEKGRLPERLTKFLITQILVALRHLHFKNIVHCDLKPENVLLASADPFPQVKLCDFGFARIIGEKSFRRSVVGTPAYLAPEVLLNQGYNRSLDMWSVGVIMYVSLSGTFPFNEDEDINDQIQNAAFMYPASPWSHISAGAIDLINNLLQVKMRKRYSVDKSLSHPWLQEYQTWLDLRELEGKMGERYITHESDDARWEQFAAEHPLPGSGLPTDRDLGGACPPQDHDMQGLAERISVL

Chain of off-target kinases (Homo sapiens, UniProt Q14012) (Q14012 whole entry): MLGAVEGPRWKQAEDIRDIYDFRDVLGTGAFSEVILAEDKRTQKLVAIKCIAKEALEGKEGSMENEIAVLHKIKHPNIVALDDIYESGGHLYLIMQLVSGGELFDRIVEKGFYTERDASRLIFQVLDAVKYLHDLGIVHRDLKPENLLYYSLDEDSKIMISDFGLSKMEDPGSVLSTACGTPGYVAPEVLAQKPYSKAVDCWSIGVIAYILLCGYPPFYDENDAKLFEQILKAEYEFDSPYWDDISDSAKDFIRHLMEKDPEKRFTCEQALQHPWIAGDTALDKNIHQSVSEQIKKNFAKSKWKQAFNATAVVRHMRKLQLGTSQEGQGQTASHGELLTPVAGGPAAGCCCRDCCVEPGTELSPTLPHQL
Chain of off-target kinases (Homo sapiens, UniProt P51812) (P51812 whole entry): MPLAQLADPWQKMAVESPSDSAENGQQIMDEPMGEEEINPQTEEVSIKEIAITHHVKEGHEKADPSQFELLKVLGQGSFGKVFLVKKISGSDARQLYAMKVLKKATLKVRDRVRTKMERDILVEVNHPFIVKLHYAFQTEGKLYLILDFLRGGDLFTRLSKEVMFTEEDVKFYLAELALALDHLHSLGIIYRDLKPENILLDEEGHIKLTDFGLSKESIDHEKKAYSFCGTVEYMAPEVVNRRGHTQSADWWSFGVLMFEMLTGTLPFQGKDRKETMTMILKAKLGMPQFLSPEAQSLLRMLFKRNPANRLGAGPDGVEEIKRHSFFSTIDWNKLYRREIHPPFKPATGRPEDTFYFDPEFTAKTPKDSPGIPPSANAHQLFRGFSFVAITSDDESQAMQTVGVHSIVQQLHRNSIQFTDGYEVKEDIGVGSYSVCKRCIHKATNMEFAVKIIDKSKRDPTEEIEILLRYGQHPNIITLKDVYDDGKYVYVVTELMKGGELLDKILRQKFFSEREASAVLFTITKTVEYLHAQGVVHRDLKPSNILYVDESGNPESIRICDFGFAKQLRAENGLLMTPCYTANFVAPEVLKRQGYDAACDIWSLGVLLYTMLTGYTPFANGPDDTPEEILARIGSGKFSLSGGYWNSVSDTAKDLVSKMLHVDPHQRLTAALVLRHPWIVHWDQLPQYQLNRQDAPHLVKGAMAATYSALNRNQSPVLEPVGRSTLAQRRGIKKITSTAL

N#Cc1cc(-c2ncnc(Nc3ccc(N4CCN(C5COC5)CC4)cc3)n2)ccc1OC1CCOCC1 [Compound 1, 5-(4-((4-(4-(oxetan-3-yl)piperazin-1-yl)phenyl)amino)-1,3,5-triazin-2-yl)-2-((tetrahydro-2H-pyran-4-yl)oxy)benzonitrile]
inhibition ([1]; read-out: % Inhibition 1): 65%
inhibition ([1]; read-out: % Inhibition 2): 69%
inhibition ([1]; read-out: % Inhibition Avg): 67%
inhibition ([2]; PDK1, ATP 100, read-out: % Inhibition 1): 14%
inhibition ([2]; PDK1, ATP 100, read-out: % Inhibition 2): 16%
inhibition ([2]; PDK1, ATP 100, read-out: % Inhibition Avg): 15%
inhibition ([2]; PDK1 Direct, ATP Km app, read-out: % Inhibition 1): 85%
inhibition ([2]; PDK1 Direct, ATP Km app, read-out: % Inhibition 2): 74%
inhibition ([2]; PDK1 Direct, ATP Km app, read-out: % Inhibition Avg): 79%
inhibition ([3]; read-out: % Inhibition 1): 7%
inhibition ([3]; read-out: % Inhibition 2): 8%
inhibition ([3]; read-out: % Inhibition Avg): 7%
inhibition ([4]; read-out: % Inhibition 1): 17%
inhibition ([4]; read-out: % Inhibition 2): 10%
inhibition ([4]; read-out: % Inhibition Avg): 14%
inhibition ([5]; read-out: % Inhibition 1): 99%
inhibition ([5]; read-out: % Inhibition 2): 97%
inhibition ([5]; read-out: % Inhibition Avg): 98%
